Assay results published in the NIST ThermoML archive (doi:10.1016/j.jct.2019.02.011).

Key:
[1] = Liquid, Vibrating tube method
[2] = xn = mol fraction of the nth substance listed; settings: Liquid, Vibrating tube method, x2 = 0

COC(=O)OC [dimethyl carbonate]
mass density [kg/m3], [1]
Settings	100 kPa	5000 kPa	10000 kPa	15000 kPa	20000 kPa	25000 kPa	30000 kPa	35000 kPa	40000 kPa
288.15 K	1076.83	1081.15	1085.32	1089.52	1093.35	1096.99	1100.63	1104.08	1107.4
293.15 K	1070.06	1074.62	1078.93	1083.01	1087.08	1091.03	1094.75	1098.34	1101.84
298.15 K	1063.45	1068	1072.51	1076.72	1080.9	1084.89	1088.82	1092.44	1096.04
303.15 K	1056.61	1061.47	1066.02	1070.49	1074.79	1078.99	1082.9	1086.6	1090.4
308.15 K	1049.91	1054.84	1059.69	1064.3	1068.73	1073	1077.1	1080.78	1084.38

CCO [ethanol]
mass density [kg/m3], [1]
Settings	100 kPa	5000 kPa	10000 kPa	15000 kPa	20000 kPa	25000 kPa	30000 kPa	35000 kPa	40000 kPa
288.15 K	794.39	798.18	802.2	806.02	809.69	812.95	816.23	819.12	822.29
293.15 K	789.87	793.83	797.88	801.84	805.45	809.12	812.52	815.8	818.81
298.15 K	785.59	789.72	793.76	797.75	801.4	805.07	808.47	811.58	815.03
303.15 K	781.19	785.47	789.66	793.71	797.54	801.26	804.81	808.29	811.43
308.15 K	776.6	780.98	785.42	789.62	793.63	797.42	801.06	804.6	808.06

CCO [ethanol] + COC(=O)OC
mass density [kg/m3], [2]
Settings	100 kPa	5000 kPa	10000 kPa	15000 kPa	20000 kPa	25000 kPa	30000 kPa	35000 kPa	40000 kPa
288.15 K	794.39	798.18	802.2	806.02	809.69	812.95	816.23	819.12	822.29
293.15 K	789.87	793.83	797.88	801.84	805.45	809.12	812.52	815.8	818.81
298.15 K	785.59	789.72	793.76	797.75	801.4	805.07	808.47	811.58	815.03
303.15 K	781.19	785.47	789.66	793.71	797.54	801.26	804.81	808.29	811.43
308.15 K	776.6	780.98	785.42	789.62	793.63	797.42	801.06	804.6	808.06

CO [methanol]
mass density [kg/m3], [1]
Settings	100 kPa	5000 kPa	10000 kPa	15000 kPa	20000 kPa	25000 kPa	30000 kPa	35000 kPa	40000 kPa
288.15 K	796.19	800.57	804.93	808.85	812.92	816.56	820.09	823.62	827.04
293.15 K	791.18	795.97	800.47	804.52	808.43	812.34	815.93	819.32	822.48
298.15 K	786.76	791.52	795.8	800.13	804.18	808.04	811.69	815.2	818.33
303.15 K	782.07	786.79	791.31	795.85	800.16	804.08	807.78	811.31	814.7
308.15 K	777.09	781.85	786.63	791.23	795.58	799.85	803.73	807.42	811.08

CO [methanol] + COC(=O)OC
mass density [kg/m3], [2]
Settings	100 kPa	5000 kPa	10000 kPa	15000 kPa	20000 kPa	25000 kPa	30000 kPa	35000 kPa	40000 kPa
288.15 K	796.19	800.57	804.93	808.85	812.92	816.56	820.09	823.62	827.04
293.15 K	791.18	795.97	800.47	804.52	808.43	812.34	815.93	819.32	822.48
298.15 K	786.76	791.52	795.8	800.13	804.18	808.04	811.69	815.2	818.33
303.15 K	782.07	786.79	791.31	795.85	800.16	804.08	807.78	811.31	814.7
308.15 K	777.09	781.85	786.63	791.23	795.58	799.85	803.73	807.42	811.08

CCCO [propan-1-ol]
mass density [kg/m3], [1]
Settings	100 kPa	5000 kPa	10000 kPa	15000 kPa	20000 kPa	25000 kPa	30000 kPa	35000 kPa	40000 kPa
288.15 K	807.62	811.32	814.7	817.95	821.27	824.24	827.24	830.04	832.73
293.15 K	803.57	807.24	810.8	814.22	817.46	820.74	823.7	826.5	829.09
298.15 K	799.61	803.49	807.15	810.5	813.78	816.92	820.04	822.87	825.81
303.15 K	795.62	799.57	803.13	806.69	810.14	813.48	816.64	819.75	822.6
308.15 K	791.31	795.4	799.21	802.79	806.37	809.72	813.03	816.12	819.06

CCCO [propan-1-ol] + COC(=O)OC
mass density [kg/m3], [2]
Settings	100 kPa	5000 kPa	10000 kPa	15000 kPa	20000 kPa	25000 kPa	30000 kPa	35000 kPa	40000 kPa
288.15 K	807.62	811.32	814.7	817.95	821.27	824.24	827.24	830.04	832.73
293.15 K	803.57	807.24	810.8	814.22	817.46	820.74	823.7	826.5	829.09
298.15 K	799.61	803.49	807.15	810.5	813.78	816.92	820.04	822.87	825.81
303.15 K	795.62	799.57	803.13	806.69	810.14	813.48	816.64	819.75	822.6
308.15 K	791.31	795.4	799.21	802.79	806.37	809.72	813.03	816.12	819.06
